Assay results: patent publication EP2526945A1, “New CRTH2 Antagonists” (Almirall, S.A., priority 2011, dated 2012)

Each compound was assayed against T1, CRTh2 receptor (Homo sapiens, UniProt Q9Y5Y4) (assay: CRTh2 GTPγS antagonism binding assay). Conditions: membranes from CHO.K1 cells stably overexpressing the CRTh2 receptor; PGD2 at 50 nM (EC80); [35S]-GTPγS as radioligand; read-out: GTPγ Binding.
T1 construct: expressed in transfected cells; host or cells: CHO.K1 cells (membranes)
T1 sequence (Q9Y5Y4 1-395): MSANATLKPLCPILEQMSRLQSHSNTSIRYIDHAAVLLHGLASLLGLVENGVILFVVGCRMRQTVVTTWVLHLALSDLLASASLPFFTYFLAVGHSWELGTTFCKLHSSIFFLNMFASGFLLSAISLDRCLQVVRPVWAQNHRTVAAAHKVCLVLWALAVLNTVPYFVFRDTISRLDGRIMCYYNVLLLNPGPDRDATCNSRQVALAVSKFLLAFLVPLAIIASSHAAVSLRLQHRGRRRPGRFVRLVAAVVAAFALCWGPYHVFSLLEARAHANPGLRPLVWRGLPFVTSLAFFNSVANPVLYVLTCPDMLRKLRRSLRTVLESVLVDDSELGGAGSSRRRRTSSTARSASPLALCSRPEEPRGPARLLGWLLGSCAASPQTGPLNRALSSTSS
Assay type: biochemical
Protocol: CRTh2 GTPγS antagonism binding assay
The assay is performed using membranes obtained from CHO.K1 cells stably overexpressing the CRTh2 receptor and [^35S]-GTPγS as radioligand. Assay is performed pre-incubating 4-8 µg of membranes per well with the compound to be tested for 1 h, followed by incubation with PGD2 at 50 nM (EC80), 0.1 nM [^35S]-GTPγS in incubation buffer (20 mM HEPES, 10 mM MgCl2, 100 mM NaCl, 10 µM GDP, 10 µg/ml Saponine and 0.2% BSA) for 2 h at room temperature. The reaction is terminated by filtering in GF/C plates pre-treated with 20 mM HEPES, 10 mM MgCl2, 100 mM NaCl and washing 6 times with wash buffer (20 mM NaH2PO4, 20 mM Na2HPO4). After washing, plates are dried and scintillation buffer Optiphase added. The radioactivity retained in the filter is counted using a Microbeta liquid scintillation counter.
For `Cc1c(Cc2ccccc2S(=O)(=O)c2ccc(Cl)cc2)c2c(n1CC(=O)O)CCNC2=O` [Example 14, (3-{2-[(4-Chlorophenyl)sulfonyl]benzyl}-2-methyl-4-oxo-4,5,6,7-tetrahydro-1H-pyrrolo[3,2-c]pyridin-1-yl)acetic acid], the IC50 was 8.4 nM.
For `Cc1c(Cc2ccccc2S(=O)(=O)c2ccccc2F)c2c(n1CC(=O)O)CCNC2=O` [Example 17, (3-{2-[(2-Fluorophenyl)sulfonyl]benzyl}-2-methyl-4-oxo-4,5,6,7-tetrahydro-1H-pyrrolo[3,2-c]pyridin-1-yl)acetic acid], the IC50 was 3.6 nM.
`Cc1c(Cc2ccccc2S(=O)(=O)c2ccc(OC(F)(F)F)cc2)c2c(n1CC(=O)O)CCNC2=O` [Example 16, [2-Methyl-4-oxo-3-(2-{[4-(trifluoromethoxy)phenyl]sulfonyl}benzyl)-4,5,6,7-tetrahydro-1H-pyrrolo[3,2-c]pyridin-1-yl]acetic acid] was tested, and the IC50 was 6.9 nM.
Work on `COc1ccc(S(=O)(=O)c2ccccc2Cc2c3c(n(CC(=O)O)c2C)CCNC3=O)cc1` [Example 15, (3-{2-[(4-Methoxyphenyl)sulfonyl]benzyl}-2-methyl-4-oxo-4,5,6,7-tetrahydro-1H-pyrrolo[3,2-c]pyridin-1-yl)acetic acid] yielded an IC50 of 3.9 nM.
`COc1cccc(Cc2c3c(n(CC(=O)O)c2C)CCNC3=O)c1S(=O)(=O)c1ccccc1` [Example 21, {3-[3-Methoxy-2-(phenylsulfonyl)benzyl]-2-methyl-4-oxo-4,5,6,7-tetrahydro-1H-pyrrolo[3,2-c]pyridin-1-yl}acetic acid] was tested, and the IC50 was 20 nM.
`CNC(=O)c1ccc(Cc2c3c(n(CC(=O)O)c2C)CCNC3=O)c(S(=O)(=O)c2ccccc2)c1` [Example 31, {2-Methyl-3-[4-[(methylamino)carbonyl]-2-(phenylsulfonyl)benzyl]-4-oxo-4,5,6,7-tetrahydro-1H-pyrrolo[3,2-c]pyridin-1-yl}acetic acid] gave an IC50 of 9.5 nM.
For `Cc1c(Cc2ccccc2S(=O)(=O)c2ccccc2)c2c(=O)[nH]ccc2n1CC(=O)O` [Example 72, {2-Methyl-4-oxo-3-[2-(phenylsulfonyl)benzyl]-4,5-dihydro-1H-pyrrolo[3,2-c]pyridin-1-yl}acetic acid], the IC50 was 8.6 nM.
With `COC(=O)c1ccc(Cc2c3c(n(CC(=O)O)c2C)CCNC3=O)c(S(=O)(=O)c2ccccc2)c1` [Example 28, {3-[4-(Methoxycarbonyl)-2-(phenylsulfonyl)benzyl]-2-methyl-4-oxo-4,5,6,7-tetrahydro-1H-pyrrolo[3,2-c]pyridin-1-yl}acetic acid] the IC50 was 11 nM.
`Cc1c(Cc2ccccc2S(=O)(=O)c2ccc(F)cc2)c2c(n1CC(=O)O)CCNC2=O` [Example 4, (3-{2-[(4-Fluorophenyl)sulfonyl]benzyl}-2-methyl-4-oxo-4,5,6,7-tetrahydro-1H-pyrrolo[3,2-c]pyridin-1-yl)acetic acid] was tested, and the IC50 was 3.2 nM.
In the case of `COc1ccc(S(=O)(=O)c2ccc(F)cc2)c(Cc2c3c(n(CC(=O)O)c2C)CC(C)(C)NC3=O)c1` [Example 62, (3-{2-[(4-Fluorophenyl)sulfonyl]-5-methoxybenzyl}-2,6,6-trimethyl-4-oxo-4,5,6,7-tetrahydro-1H-pyrrolo[3,2-c]pyridin-1-yl)acetic acid], the IC50 is reported as 4.8 nM.
`Cc1c(Cc2ccccc2S(=O)(=O)c2cccc(Cl)c2)c2c(n1CC(=O)O)CCNC2=O` [Example 8, (3-{2-[(3-Chlorophenyl)sulfonyl]benzyl}-2-methyl-4-oxo-4,5,6,7-tetrahydro-1H-pyrrolo[3,2-c]pyridin-1-yl)acetic acid] gave an IC50 of 4 nM.
`Cc1c(Cc2ccccc2S(=O)(=O)N2CCOCC2)c2c(n1CC(=O)O)CCNC2=O` [Example 24, {2-Methyl-3-[2-(morpholin-4-ylsulfonyl)benzyl]-4-oxo-4,5,6,7-tetrahydro-1H-pyrrolo[3,2-c]pyridin-1-yl}acetic acid] gave an IC50 of 20 nM.
For `COc1cccc(S(=O)(=O)c2ccccc2Cc2c3c(n(CC(=O)O)c2C)CCNC3=O)c1` [Example 34, (3-{2-[(3-Methoxyphenyl)sulfonyl]benzyl}-2-methyl-4-oxo-4,5,6,7-tetrahydro-1H-pyrrolo[3,2-c]pyridin-1-yl)acetic acid], the IC50 was 12 nM.
`Cc1c(Cc2ccccc2S(=O)(=O)c2cccc(F)c2)c2c(n1CC(=O)O)CCNC2=O` [Example 12, (3-{2-[(3-Fluorophenyl)sulfonyl]benzyl}-2-methyl-4-oxo-4,5,6,7-tetrahydro-1H-pyrrolo[3,2-c]pyridin-1-yl)acetic acid] showed an IC50 of 6.2 nM.
With `Cc1c(Cc2ccccc2S(=O)(=O)c2ccccc2)c2c(n1CC(=O)O)CCN(C(C)C(F)(F)F)C2=O` (stereo not shown) [Example 71, [2-Methyl-4-oxo-3-[2-(phenylsulfonyl)benzyl]-5-(2,2,2-trifluoro-1-methylethyl)-4,5,6,7-tetrahydro-1H-pyrrolo[3,2-c]pyridin-1-yl]acetic acid] the IC50 was 5.8 nM.
In the case of `Cc1c(Cc2ccc(C(=O)O)cc2S(=O)(=O)c2ccccc2)c2c(n1CC(=O)O)CCNC2=O` [Example 29, 4-{[1-(Carboxymethyl)-2-methyl-4-oxo-4,5,6,7-tetrahydro-1H-pyrrolo[3,2-c]pyridin-3-yl]methyl}-3-(phenylsulfonyl)benzoic acid], the IC50 is reported as 18 nM.
For `Cc1c(Cc2ccccc2S(=O)(=O)c2ccccc2)c2c(n1[C@H](C)C(=O)O)CCNC2=O` [Example 20, (2R)-2-{2-Methyl-4-oxo-3-[2-(phenylsulfonyl)benzyl]-4,5,6,7-tetrahydro-1H-pyrrolo [3,2-c]pyridin-1-yl}propanoic acid], the IC50 was 9.2 nM.
`Cc1c(Cc2cc(F)ccc2S(=O)(=O)c2ccccc2)c2c(n1CC(=O)O)CCNC2=O` [Example 37, {3-[5-Fluoro-2-(phenylsulfonyl)benzyl]-2-methyl-4-oxo-4,5,6,7-tetrahydro-1H-pyrrolo[3,2-c]pyridin-1-yl}acetic acid] was tested, and the IC50 was 3.7 nM.
In the case of `Cc1c(Cc2ccccc2S(=O)(=O)c2ccccc2)c2c(n1CC(=O)O)CCN(C)C2=O` [Example 27, {2,5-Dimethyl-4-oxo-3-[2-(phenylsulfonyl)benzyl]-4,5,6,7-tetrahydro-1H-pyrrolo[3,2-c]pyridin-1-yl}acetic acid], the IC50 is reported as 5.4 nM.
With `Cc1c(Cc2ccccc2S(=O)(=O)c2ccccc2)c2c(n1CC(=O)O)CCN(Cc1ccccc1)C2=O` [Example 36, {5-Benzyl-2-methyl-4-oxo-3-[2-(phenylsulfonyl)benzyl]-4,5,6,7-tetrahydro-1H-pyrrolo[3,2-c]pyridin-1-yl}acetic acid] the IC50 was 1.5 nM.
`Cc1c(Cc2ccc(C(F)(F)F)cc2S(=O)(=O)c2ccccc2)c2c(n1CC(=O)O)CCNC2=O` [Example 10, {2-Methyl-4-oxo-3-[2-(phenylsulfonyl)-4-(trifluoromethyl)benzyl]-4,5,6,7-tetrahydro-1H-pyrrolo[3,2-c]pyridin-1-yl}acetic acid] showed an IC50 of 13 nM.
Work on `Cc1c(Cc2ccc(S(=O)(=O)Cc3ccccc3)cc2)c2c(n1CC(=O)O)CCNC2=O` [Example 39, {3-[4-(Benzylsulfonyl)benzyl]-2-methyl-4-oxo-4,5,6,7-tetrahydro-1H-pyrrolo[3,2-c]pyridin-1-yl}acetic acid] yielded an IC50 of 2.9 nM.
Work on `Cc1c(Cc2ccccc2S(=O)(=O)c2ccc(F)cc2)c2c(n1CC(=O)O)CC(C)(C)NC2=O` [Example 60, (3-{2-[(4-Fluorophenyl)sulfonyl]benzyl}-2,6,6-trimethyl-4-oxo-4,5,6,7-tetrahydro-1 H-pyrrolo[3,2-c]pyridin-1-yl)acetic acid] yielded an IC50 of 5 nM.
`COc1ccc(S(=O)(=O)c2ccccc2)c(Cc2c3c(n(CC(=O)O)c2C)CCNC3=O)c1` [Example 6, {3-[5-Methoxy-2-(phenylsulfonyl)benzyl]-2-methyl-4-oxo-4,5,6,7-tetrahydro-1H-pyrrolo[3,2-c]pyridin-1-yl}acetic acid] showed an IC50 of 3.6 nM.
`Cc1c(Cc2ccccc2S(=O)(=O)c2ccccc2)c2c(=O)n(C)ccc2n1CC(=O)O` [Example 75, {2,5-Dimethyl-4-oxo-3-[2-(phenylsulfonyl)benzyl]-4,5-dihydro-1H-pyrrolo[3,2-c]pyridin-1-yl}acetic acid] was tested, and the IC50 was 4.9 nM.
`Cc1c(Cc2ccccc2S(=O)(=O)c2ccccc2)c2c(n1CC(=O)O)CCNC2=O` [Example 2, {2-Methyl-4-oxo-3-[2-(phenylsulfonyl)benzyl]-4,5,6,7-tetrahydro-1H-pyrrolo[3,2-c]pyridin-1-yl}acetic acid] gave an IC50 of 4.6 nM.
Compound `Cc1c(Cc2ccccc2S(=O)(=O)c2ccccc2)c2c(n1CC(=O)O)CC(C)(C)NC2=O` [Example 58, {2,6,6-Trimethyl-4-oxo-3-[2-(phenylsulfonyl)benzyl]-4,5,6,7-tetrahydro-1H-pyrrolo[3,2-c]pyridin-1-yl}acetic acid] has an IC50 of 4.5 nM.
Compound `Cc1c(Cc2cc(Br)ccc2S(=O)(=O)c2ccccc2)c2c(n1CC(=O)O)CCNC2=O` [Example 42, {3-[5-Bromo-2-(phenylsulfonyl)benzyl]-2-methyl-4-oxo-4,5,6,7-tetrahydro-1H-pyrrolo[3,2-c]pyridin-1-yl}acetic acid] has an IC50 of 3.9 nM.
